Patent publication US20130096160A1, “ARYLTHIAZOLYL PIPERIDINES AND RELATED COMPOUNDS AS MODULATORS OF SURVIVAL MOTOR NEURON (SMN) PROTEIN PRODUCTION” (Secretary, Department of Health and Human Services, priority 2010, published 2013)

Columns and labels:
SMN2-luciferase reporter = SMN2-luciferase reporter qHTS assay; format: cell-based, human; set-up: key to Curve Class: A curve class of 1.1 is a full agonist/antagonist; a curve class of 4 indicates the compound is inactive; details: for Curve Class: agonist/antagonist character of the concentration-response, lower values = more significant concentration-response; for Increased SMN2 activity: percent increase (or decrease) in SMN2 levels compared to control in which no test compound is added
How it was run: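 SMN2 exon-7 splicing firefly-luciferase reporter cell line, ~2000 cells/well in phenol-red-free DMEM with 10% serum, allowed to adhere 10–12 h, then exposed to compounds for 2 days at 37 C, 5% CO2. Seven-point five-fold dilution series (e.g. 50 μM to 3.2 nM), OneGlo luminescence read, curves fitted to Hill equation.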

[1] = mouse, microsomes, 1 h, 1 μM, pH 7.4
Protocol: The test agent is incubated at 1 μM in duplicate with mouse microsomes at 37° C. for 60 min. The reaction contains 0.3 mg/mL microsomal protein in 100 mM potassium phosphate, 2 mM NADPH, 3 mM MgCl2, pH 7.4. A control is run for each test agent omitting NADPH to detect NADPH-free degradation. At indicated times, an aliquot is removed from each experimental and control reaction and mixed with an equal volume of ice-cold Stop Solution (0.3% acetic acid in acetonitrile containing haloperidol, diclofenac, or other internal standard). Stopped reactions are incubated at least ten minutes at −20° C., and an additional volume of water is added.
The samples are centrifuged to remove precipitated protein, and the supernatants are analyzed by LC/MS/MS, as described above, to quantitate the remaining parent. Data are reported as % remaining by dividing by the time zero concentration value.

human SMN protein = assay: Western blot of SMN protein in SMA patient fibroblasts (3813); format: cell-based; details: 3813 fibroblasts, quantitative western blotting, FIG. 4; for SMN protein level versus dose (in words): different doses
Protocol: Type I spinal muscular atrophy (SMA)-affected human primary fibroblasts (#GM03813) and carrier parents (#GM03814, parent and #GM03815, […]) are obtained live with low passage number from Coriell Cell Repositories. […] For detection of SMN protein in patient fibroblasts, 8,000 cells per cm^2 are plated 24 hours prior to drug addition. Fresh media and compound are added every 24 hours. After 72 hours, cells are harvested, washed with cold PBS, and lysed. Samples are subjected to polyacrylamide gel electrophoresis (PAGE). It is determined that 10 μg total protein per lane is within the linear range for immunoblot detection of SMN and alpha-tubulin. Western blots of the gel are probed for SMN with the 4B7 mouse monoclonal antibody (from the lab of Christian Lorson). A goat anti-mouse antibody (Santa Cruz Biotechnology/#sc-2005) conjugated to horseradish peroxidase (HRP) is used as the secondary antibody. Quantification of protein is performed by detecting chemiluminescence with a Fujifilm LAS-4000 Multifunctional Imaging System. […] We incubated a fibroblast cell line from a type I SMA patient (3813 cell line) with different doses of analogues and assessed the SMN protein level by quantitative western blotting (FIG. 4). We observed that analogue 8 m at concentration of 37 nanomolar increased the SMN protein level by 2-3 fold. […] This could be due with the intrinsic mechanism of action or to other causes, such us concentration dependent compound solubility.

[2] = system: SMN positive foci or gems in the nucleus; assay: Gem count in human type I SMA fibroblasts; format: cell-based; details: 3 days, FIG. 5; for number of gems versus dose (in words): 37 nM-3000 nM
Description: Furthermore, the increase in SMN protein production led us to explore whether the arylpiperidine analogues had effect of on the overall number of SMN positive foci or gems in the nucleus. This would corroborate that the increased protein amounts represent indeed functional SMN protein. SMN protein is predominately a cytoplasmic protein in the nucleous SMN which localized to in distinct punctuate bodies often referred to as gems (gemini of coiled [Cajal] bodies). There is a direct correlation between the number of gems and total SMN protein production in the cell. Gem counts are commonly used as another metric to score the amount total SMN protein expressed on a cell-to-cell basis. […] Only 3.3% of nuclei have gems in fibroblast cells from SMA type I patients (cell line 3813), while 24.8% of nuclei have gems in fibroblast from a carrier parent (3814 cell line). We treated human type I SMA fibroblasts with increasing doses (37 nM 3000 nM) of arylpiperidine analogues 8a, 8m, and 9a for 3 days and the number of gems per 100 nuclei were examined (FIG. 5). Analogue 8m treatment yielded more than 2 fold of increase of the number of the gems at low 37 nM dose.

in vitro = in vitro ADME; details: human, Caco-2
Protocol: CaCo-2 cells grown in tissue culture flasks are trypsinized, suspended in medium, and the suspensions are applied to wells of a collagen-coated BioCoat Cell Environment in 24-well format (BD Biosciences) at 24,500 cells per well. The cells are allowed to grow and differentiate for three weeks, feeding at 2-day intervals.
For Apical to Basolateral (A->B) permeability, the test agent is added at 50 μM to the apical (A) side and amount of permeation is determined on the basolateral (B) side; for Basolateral to Apical (B>A) permeability, the test agent is added at 50 μM to the B side and the amount of permeation is determine on the A side. The A-side buffer contains 100 μM Lucifer yellow dye, in Transport Buffer (1.98 g/L glucose in 10 mM HEPES, 1× Hank's Balanced Salt Solution) pH 6.5, and the B-side buffer is Transport Buffer, pH 7.4. CaCo-2 cells are incubated with these buffers for 2 h., and the receiver side buffer is removed for analysis by liquid chromatography-mass spectrometry (LC/MS/MS).
Additionally, several control compounds are tested in the identical assay.
To verify that CaCo-2 cell monolayers are properly formed, aliquots of the cell buffers are analyzed by fluorescence to determine the transport of the impermeable dye Lucifer Yellow.
Data are expressed as permeability (Papp): […]
where dQ/dt is the rate of permeation, C0 is the initial concentration of test agent, and A is the area of the monolayer.
In bidirectional permeability studies, the asymmetry index (AI) or efflux ratio is also calculated:
An AI>1 indicated a potential substrate for PGP or other active transporters.
Samples are analyzed by LC/MS/MS using either an Agilent 6410 mass spectrometer coupled with an Agilent 1200 high performance liquid chromatography (HPLC) and a CTC PAL chilled autosampler, all controlled by MassHunter software (Agilent), or an ABI2000 mass spectrometer coupled with an Agilent 1100 HPLC and a CTC PAL chilled autosampler, all controlled by Analyst software (ABI). After separation on a C18 reverse phase HPLC column (Agilent, Waters, or equivalent) using an acetonitrile-water gradient system, peaks are analyzed by mass spectrometry (MS) using electrospray ionization (ESI) in multiple reaction monitoring (MRM) mode.
The signal is optimized for each compound by ESI positive or negative ionization mode. A MS2 selected ion monitoring (SIM) scan is used to optimize the precursor ion and a product ion analysis is used to identify the best fragment for analysis and to optimize the collision energy.

SMILES	Minus NADPH Parent remaining 1st [1]	Minus NADPH Parent remaining 2nd [1]	Minus NADPH Parent remaining mean [1]	Plus NADPH Parent remaining 1st [1]	Plus NADPH Parent remaining 2nd [1]	Plus NADPH Parent remaining mean [1]	Curve Class (SMN2-luciferase reporter)	Increased SMN2 activity (SMN2-luciferase reporter)	SMN protein level versus dose (in words) (human SMN protein)	other results
Cc1ccc(-c2cnc(N3CCC(C(N)=O)CC3)s2)cc1 [Example 119, 1-(5-P-Tolylthiazol-2-yl)Piperidine-4-Carboxamide]							1.1	609.4%	up-regulation of SMN protein at concentrations ranging between 37 nM and 333 nM	
CC(C)Oc1cccc(-c2cnc(N3CCC(C(N)=O)CC3)s2)c1 [Example 123, 1-(5-(3-Isopropoxyphenyl)Thiazol-2-yl)Piperidine-4-Carboxamide]							1.1	709.6%	up-regulation of SMN protein at concentrations ranging between 37 nM and 333 nM	
NC(=O)C1CCN(c2ncc(-c3ccc4c(c3)OCCCO4)s2)CC1 [Example 124, 1-(5-(3,4-Dihydro-2H-Benzo[B][1,4] Dioxepin-7-yl)Thiazol-2-yl)Piperidine-4-Carboxamide]							1.1	370.5%		number of gems versus dose (in words) [2]: didn't show any activity
CSc1ccc(-c2cnc(N3CCC(C(N)=O)CC3)s2)cc1 [Example 134, 1-(5-(4-(Methylthio)Phenyl)Thiazol-2-yl)Piperidine-4-Carboxamide]							1.1	576.1%	decreased with the increasing of the drug concentration	increase of SMN protein level (human SMN protein; 37 nanomolar): 2-3 fold; increase of the number of the gems ([2]; 37 nM): more than 2 fold; number of gems versus dose (in words) [2]: With the concentration increased, the numbers of gems was reduced
O=C(O)C1CCN(c2ncc(-c3ccc4c(c3)OCCCO4)s2)CC1 [Example 148, 1-(5-(3,4-Dihydro-2H-Benzo[B][1,4]Dioxepin-7-yl)Thiazol-2-yl)Piperidine-4-Carboxylic Acid]							1.1	325.6%	dose-dependent trend between 37 nM to 1 μM concentration and a decrease of protein level at 3 μM	increase of the gem numbers ([2]; 37 nM to 1000 nM): 80%; number of gems versus dose (in words) [2]: slightly decreased at 3000 nM
O=C(Nc1ccccc1)C1CCN(c2ncc(-c3ccc4c(c3)OCCCO4)s2)CC1 [Example 151, 1-(5-(3,4-Dihydro-2H-Benzo[B][1,4]Dioxepin-7-yl)Thiazol-2-yl)-N-Phenylpiperidine-4-Carboxamide]							1.1	353%	up-regulation of SMN protein at concentrations ranging between 37 nM and 333 nM	
CNC(=C[N+](=O)[O-])NCCSCc1ccc(CN(C)C)o1 [Ranitidine, ranitidine, reference compound]										Papp A→B at 2 h, 10 μM (in vitro): 0.42 ×10⁻⁶ cm/s
CC(=O)CC(c1ccccc1)c1c(O)c2ccccc2oc1=O (stereo not shown) [Warfarin, reference compound]										Papp A→B at 2 h, 10 μM (in vitro): 45.8 ×10⁻⁶ cm/s; Papp B→A at 2 h, 10 μM (in vitro): 11.7 ×10⁻⁶ cm/s

Second part, led by results:

Minus NADPH Parent remaining 1st [1]	Minus NADPH Parent remaining 2nd [1]	Minus NADPH Parent remaining mean [1]	Plus NADPH Parent remaining 1st [1]	Plus NADPH Parent remaining 2nd [1]	Plus NADPH Parent remaining mean [1]	SMILES	Curve Class (SMN2-luciferase reporter)	Increased SMN2 activity (SMN2-luciferase reporter)	SMN protein level versus dose (in words) (human SMN protein)	other results
68%	51%	59%	55%	43%	49%	NC(=O)C1CCN(c2nc(-c3ccc(Br)cc3)cs2)CC1 [Example 23, 1-(4-(4-Bromophenyl)Thiazol-2-yl)Piperidine-4-Carboxamide]	1.1	267.7%		
16%	15%	16%	1%	0%	1%	NC(=O)C1CCN(c2nc(-c3ccc4c(c3)OCCO4)cs2)CC1 [Example 48, 1-(4-(2,3-Dihydrobenzo[B][1,4]Dioxin-6-yl)Thiazol-2-yl)Piperidine-4-Carboxamide]	1.1	459%		
69%	66%	67%	0%	0%	0%	CN(C)c1cccc(-c2csc(N3CCC(C(N)=O)CC3)n2)c1 [Example 63, 1-(4-(3-(Dimethylamino)Phenyl)Thiazol-2-yl)Piperidine-4-Carboxamide]	1.1	504%		
90%	101%	95%	76%	85%	81%	O=C(O)C1CCN(c2nc(-c3ccc(Br)cc3)cs2)CC1 [Example 69, 1-(4-(4-Bromophenyl)Thiazol-2-yl)Piperidine-4-Carboxylic Acid]	1.1	554.58%		
